Type in all cases: in vivo, Carpophilus truncatus
Assay [1] concerns C. truncatus. Description: Laboratory dual-choice cage bioassays of co-attractant solutions. Conditions: Experiment #2: solution lacking one component vs full commercial co-attractant (CL). The protocol: Cage bioassays were developed for the rapid screening of beetle attraction to prototype co-attractant solutions. Adult beetles were separated in groups of hundred individuals (mixed sex) and starved for 48 h in (30 cm×30 cm×30 cm) mesh cages in Controlled Environment rooms (29° C., 60% RH, 16L:8D Photoperiod). Two plastic traps made from 30 mL plastic cups comprising four 5-mm holes equidistantly distributed along their circumference and a single hole in the lid were filled with 20 mL of freshly prepared test co-attractant solutions (FIG. 2) and placed inside the mesh cage approximately 15-20 cm apart. Beetles were allowed 48 h to choose between the two solutions. At the end of the experiments, traps were collected in plastic containers and beetles inside each treatment cups (alive or drowned) as well as non-selecting individuals were counted. Experiments were replicated a minimum of ten times for each prototype solution. An attraction index, used to determine the degree of attraction or deterrence of the test solution in comparison to the control, was calculated as follows: (n beetles in test solution)−(n beetles in control)/total n beetles. Attraction indices returned values ranging between −1 (extreme repellence) and +1 (extreme attraction); 0 corresponding to the absence of preference for either solutions. Deviation of the indices from zero was analysed using two tailed t-tests. Cage bioassays were used to test the attraction of C. truncatus to the commercial co-attractant (co-attractant vs water) and to screen the influence of individual constituents of the commercial Carpophilus co-attractant on C. truncatus attraction. The effect of different constituents was assessed by testing the co-attractant (control) against test co-attractant solutions in which one constituent was excluded.
In a first cage experiment (Experiment #1, table 4), the attraction of C. truncatus attraction to the commercial co-attractant (CL) was verified using water as a control treatment (FIG. 14).
In a second experiment (Experiment #2, table 4), the influence of individual components of the commercial co-attractant on C. truncatus was assessed by testing beetle's preferences between test co-attractant solutions in which a single compound was missing against the full formulation.

A further assay relates to C. truncatus antennae. As to the kind of experiment: GC-EAD (gas chromatography coupled with electroantennography) screening of odour and pheromone septa extracts. As to conditions: for EAD: compounds in solvent extracts of commercial pheromone septa, key not given, antennae responded to all but one. Here is the method: Pheromone compounds and other biologically active compounds present in odour extracts were screened by Gas Chromatography coupled with electroantennography (GC-EAD). The same GC setup used for chemical analysis was used in conjunction with an electroantennograph (Ockenfels Syntech GmbH, Germany). An apolar column SLB-5 MS (30 m×0.32 mm×0.25 μm) used as analytical column was connected to a CFT splitter plate (Capillary Flow Technology, Agilent). A constant flow of helium (1 mL/min) used as carrier and make-up gas was maintained towards the mass spectrometer. […] The EAD restrictor was fitted in a 50 cm transfer line (Ockenfels Syntech GmbH, Germany) heated at 250° C. allowing only the last 2 mm segment of the restrictor to protrude inside a glass mixing tube (3.8 mm inner diameter) positioned above the insect preparation and in which a 29 cm/s stream of purified air was applied. The described setup allowed relatively well-synced signals between all three detectors. One-week-old beetles were anesthetized on ice and immobilised in a micropipette tip with a cotton plug, with the upper part of the abdomen exposed. A sharp glass electrode filled with an electrolyte (0.1 N KCl, 3% PVP) was inserted into the head of the beetle (reference) while a similar electrode was positioned on the disc-shaped distal end of the antenna using a micromanipulator (FIG. 1). The antennal signal was amplified and recorded using an IDAC-4 (Ockenfels Syntech, Germany). When a good contact was obtained (checked via a 1% isopentyl acetate “puff” stimulation), an aliquot of volatile extract was injected in the GC and the sensitivity or lack thereof to individual compounds was determined by the overlay of MS/FID and EAD signals. Beetle odour extracts as well as extracts from commercial synthetic Carpophilus pheromones were screened by coupled gas chromatography-electroantennographic detection (GC-EAD) to test for beetle sensitivity to the putative pheromone and those of other Carpophilus species (FIG. 9).

For assay [2], the system named is C. truncatus male and female adult beetles. Description: Y-tube olfactometer bioassays with isolated pheromone fractions. As to conditions: 20 μl isolated fraction vs hexane control, diet odour in both arms. Here is the method: Beetle orientation to different test odours was tested in a Y-tube glass olfactometer (ID: 2 cm, 10 cm stem and 7.5 cm choice arm length, 70° angle between arms) placed on a thick white paper sheet. All the experiments were conducted in a Controlled Environment Room at 28° C. The olfactometer was placed at a 30° angle to take advantage of beetles' natural negative geotaxis. Both arms of the Y-tube were connected via glass connectors or PTFE tubing to air-tight glass chambers in which different odours were applied. Activated charcoal-filtered air was circulated through the glass chambers entraining test odours to the choice arms of the Y-tube at 400 mL/min. The olfactometer was illuminated from above by dimmable fluorescent light tubes (Fititron, Weiss Gallenkamp, UK) covered by a sheet of UV-permitting diffusing white screen paper (Rosco 216, Germany). Light intensity at both ends of the two choice arms was measured and adjusted to 990 lux using a digital lux meter. Beetles were released individually in the olfactometer's main stem and observed for 10 min. Individuals that crossed the middle of either test arms (4 cm inside the arm; empirically designated as a non-return point) were considered to have made a choice. […] Preferences for male or female odours were assessed in a similar way by testing the beetle's orientation when simultaneous exposed to male and female beetle-infested diet. […]

Assay [3] concerns C. truncatus. As to the kind of experiment: Field trials in almond orchards, black funnel traps. As to conditions: field trial #3a; simplified co-attractant; FIG. 19. The protocol: All field trials were conducted in commercial almond orchards located in Mildura area (Victoria, Australia) between 2018 and 2020. Treatments were tested in black funnel traps (supplied by Bugs for Bugs; https://bugsforbugs.com.au/product/Carpophilus-[…]/) placed at ground level and secured using metal fence […] deeply anchored in the soil (FIG. 3). This differs from the conventional use of these traps in stone fruits where traps are suspended on […] 1.5 m height and derives from pilot experiments showing that more C. truncatus are caught when traps are placed on the ground (FIG. 5). An insecticidal strip (dichlorovos) was placed inside the traps to kill captured beetles. […] Beetles responses to different odours in Y-tube olfactometer experiments were analysed using binomial tests, assuming a distribution ratio of 1:1 between the two choice arms as the null-hypothesis. […] The deviation from zero of the attraction indices calculated in cage bioassays was analysed using paired t-tests. Field trial data were analysed as the mean weekly catches per trap over the period of the trials (between 2-6 weeks depending on beetle population density) using generalized linear mixed model fitted with a negative binomial distribution. […]

As for `CCC(C)CO` (stereo not shown) [2-methylbutanol], the “effect of individual component of commercial co-attractant on C. truncatus” value (from here on “effect”) with C. truncatus [1] was “deterrent effect”.
For the compound `C/C=C(C)/C=C(/C=C/CC)CC` [(2E,4E,6E)-5-ethyl-3-methyl-2,4,6-nonatriene], the EAD entry in the assay on C. truncatus antennae was “✓”.
In the case of `C/C=C/C(C)=C/C(C)=C/C(C)=C/C` [(2E,4E,6E,8E)-3,5,7-Trimethyl-2,4,6,8-decatetraene], the EAD entry in the assay on C. truncatus antennae is listed as “✓”.
Still for that read-out and setting: the same measure for `C/C=C(C)/C=C(C)/C=C(/C=C/CC)CC` [(2E,4E,6E,8E)-7-ethyl-3,5-dimethyl-2,4,6,8-undecatetraene]: “✓”; for `CC/C=C/C(=C/C(C)=C/CC)CC` [(3E,5E,7E)-6-ethyl-4-methyl-3,5,7-decatriene]: “✓”.
On to `C/C=C/C(=C/C(C)=C/C(C)=C/C)CC` [Pheromone 1, (2E,4E,6E,8E)-7-Ethyl-3,5-dimethyl-2,4,6,8-decatetraene], for which, in the assay with C. truncatus antennae, the EAD entry was “✓”. In assay [2], the “attraction in Y-tube olfactometer” value is reported as “more attractive than pheromone 2”.
On to `C/C=C(C)/C=C(C)/C=C(C)/C=C/CC` [Pheromone 2, (2E,4E,6E,8E)-3,5,7-trimethyl-2,4,6,8-undecatetraene], for which, in the assay with C. truncatus antennae (beetle odour extracts), the “GC-EAD responses of C. truncatus males and females” value was “strong and consistent GC-EAD responses”. Besides, the EAD entry in the assay with C. truncatus antennae was “✓”. For the same compound, the “attraction in Y-tube olfactometer” value in assay [2] was “comparable level of attraction”.
In the case of `CC=O` [acetaldehyde], the “effect” value with C. truncatus [1] is “deterrent effect”.
On the same count and under the same terms, under `CCO` [ethanol] stands “main attractants”; under `CCOC(C)=O` [ethyl acetate], “deterrent effect”; under `CC(C)CO` [isobutyl alcohol], “no observable effect”.
As for `CC(C)CCO` [isopentyl alcohol], the “effect” value in the assay on C. truncatus [1] is “main attractants”. Also, the “C. truncatus attraction at higher concentrations of isopentyl alcohol” value in the assay with C. truncatus [3] is given as “significantly increase”.

(Values after US20240292835A1, “Methods, Compositions and Devices for Insect Control” (Agriculture Victoria Services PTY LTD, priority 2020, published 2024).)
